Results: patent US10570168B2, “2′ and/or 5′ amino-acid ester phosphoramidate 3′-deoxy adenosine derivatives as anti- cancer compounds” (NuCana plc, priority 2014, dated 2020)

Columns and labels:
Format in all cases: cell-based
HL-60 = assay: CellTiterGlo viability assay, initial screening; conditions: Homo sapiens, HL-60, 72 h, read-out: IC50 (relative IC50)
Method: (§1) In vitro viability assays were performed to assess the effects of compounds on cell viability in 7 selected cell lines over 72 hr using the CellTiterGlo (CTG, Promega-G7573) assay. The tests were performed in duplicates with treatment of compounds at 9 points, 3.16 folds titration in 96 well plates over ˜72 hr. The compound starting concentrations were […]. Cell viability assay using CellTiterGlo in 96-well plate were performed. The compound treatment was 72 hrs, under standard growth conditions, and in duplicate. Compounds were dissolved to 40 mM with thawed […]. Compounds were serially diluted at 3.16 fold in thawed DMSO, and warmed to 37° C. before being dissolved in media (2 μl+200 μl). After compounds were dissolved in media (media was also warmed to 37° C.). Media containing compounds were warmed to 37° C. in incubator and then compounds in media were added to cell plates (50 μl+50 μl), in duplicates. The compounds final concentrations were from […] to 19.9 nM. All compound solubilities were checked and recorded again, then the plates were transferred to CO2 tissue culture incubator immediately and incubated for 3 days. DMSO final concentration is 0.5%.

HepG2 [1] = assay: CellTiterGlo viability assay, initial screening; conditions: Homo sapiens, HepG2, 72 h, read-out: IC50 (relative IC50)
Method: as §1

K562 = assay: CellTiterGlo viability assay, initial screening; conditions: Homo sapiens, K562, 72 h, read-out: IC50 (relative IC50)
Method: as §1

KG-1 [2] = assay: CellTiterGlo viability assay, initial screening; conditions: Homo sapiens, KG-1, 72 h, read-out: IC50 (relative IC50)
Method: as §1

MCF-7 = assay: CellTiterGlo viability assay, initial screening; conditions: Homo sapiens, MCF7, 72 h, read-out: IC50 (relative IC50)
Method: as §1

MOLT-4 [3] = assay: CellTiterGlo viability assay, initial screening; conditions: Homo sapiens, MOLT-4, 72 h, read-out: IC50 (relative IC50)
Method: as §1

CCRFCEM = assay: Solid tumour and haematological malignancy assay (CellTiterGlo); conditions: Homo sapiens, CCRF-CEM, 72 h; for IC50: read-out: IC50 (absolute IC50); for Emax: read-out: MI %
How it was run: (§2)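 Compound pre-warmed to 37° C in medium, added to cells in duplicate; incubated 3 days in CO2 incubator; viability measured with CellTiterGlo. DMSO final 0.5%.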

HepG2 [4] = assay: as above; conditions: Homo sapiens, HepG2, 72 h; for IC50: read-out: IC50 (absolute IC50)
How it was run: as §2

KG-1 [5] = assay: as above; conditions: Homo sapiens, KG-1, 72 h; for IC50: read-out: IC50 (absolute IC50)
How it was run: as §2

BxPC-3 = assay: as above; conditions: Homo sapiens, BXPC-3, 72 h, read-out: IC50 (absolute IC50)
How it was run: (§3)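 Cells were treated in duplicate with a 9-point, 3.16-fold dilution series for about 72 h under standard growth conditions. Final concentrations ran from […] to 19.9 nM, with 0.5% DMSO. Viability was read by CellTiter-Glo luminescence.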

HS445 = assay: as above; conditions: Hs 445, 72 h; for IC50: read-out: IC50 (absolute IC50)
How it was run: as §3

Jurkat = assay: as above; conditions: Homo sapiens, 72 h, read-out: IC50 (absolute IC50)
How it was run: as §3

MOLT-4 [6] = assay: as above; conditions: Homo sapiens, MOLT-4, 72 h; for IC50: read-out: IC50 (absolute IC50)
How it was run: as §3

MV4-11 = assay: as above; conditions: Homo sapiens, MV4-11, 72 h; for IC50: read-out: IC50 (absolute IC50); for Emax: read-out: MI %
How it was run: as §3

NCI-H929 = assay: as above; conditions: Homo sapiens, NCI-H929, 72 h; for IC50: read-out: IC50 (absolute IC50); for Emax: read-out: MI %
How it was run: as §3

RL = assay: as above; conditions: Homo sapiens, 72 h; for IC50: read-out: IC50 (absolute IC50)
How it was run: as §3

RPMI-8226 = assay: as above; conditions: Homo sapiens, RPMI-8226, 72 h; for IC50: read-out: IC50 (absolute IC50)
How it was run: as §3

SW620 = assay: as above; conditions: Homo sapiens, SW-620, 72 h; for IC50: read-out: IC50 (absolute IC50)
How it was run: as §3

THP-1 = assay: as above; conditions: Homo sapiens, THP-1, 72 h; for IC50: read-out: IC50 (absolute IC50)
How it was run: as §3

Z138 = assay: as above; conditions: Homo sapiens, Z-138, 72 h; for IC50: read-out: IC50 (absolute IC50); for Emax: read-out: MI %
How it was run: as §3

Row | Compound | IC50 (HL-60) [µM] | IC50 (HepG2 [1]) [µM] | IC50 (K562) [µM] | IC50 (KG-1 [2]) [µM] | IC50 (MCF-7) [µM] | IC50 (MOLT-4 [3]) [µM] | IC50 (CCRFCEM) [µM] | Emax (CCRFCEM) [%] | IC50 (HepG2 [4]) [µM] | IC50 (KG-1 [5]) [µM] | IC50 (BxPC-3) [µM] | IC50 (HS445) [µM] | IC50 (Jurkat) [µM] | IC50 (MOLT-4 [6]) [µM] | IC50 (MV4-11) [µM] | Emax (MV4-11) [%] | IC50 (NCI-H929) [µM] | Emax (NCI-H929) [%] | IC50 (RL) [µM] | IC50 (RPMI-8226) [µM] | also measured
1 | C[C@H](NP(=O)(OC[C@@H]1C[C@@H](O)[C@H](n2cnc3c(N)ncnc32)O1)Oc1cccc2ccccc12)C(=O)OCc1ccccc1 (stereo partly drawn) [B, (2S)-benzyl 2-(((((2S,4R,5R)-5-(6-amino-9H-purin-9-yl)-4-hydroxytetrahydrofuran-2-yl)methoxy)(naphthalen-1-yloxy)phosphoryl)amino)propanoate] | 5 to 15 | 5 to 15 | 0.1 to 5 | 5 to 15 | 0.1 to 5 | 0.1 to 5 | 0.1 to 5 | 100 | 5 to 15 | 5 to 15 | 5 to 15 | 5 to 15 | 0.1 to 5 | 0.1 to 5 | 0.1 to 5 | 99 | 0.1 to 5 | 99 | 0.1 to 5 | 5 to 15 | IC50 (SW620): 5 to 15 µM; IC50 (THP-1): 15 to 100 µM; IC50 (Z138): 5 to 15 µM; Emax (Z138): 100%
2 | Nc1ncnc2c1ncn2[C@@H]1O[C@H](COP(=O)(NCC(=O)OCc2ccccc2)Oc2ccccc2)C[C@H]1O (stereo partly drawn) [C, Benzyl 2-(((((2S,4R,5R)-5-(6-amino-9H-purin-9-yl)-4-hydroxytetrahydrofuran-2-yl)methoxy)(phenoxy)phosphoryl)amino)acetate] | 15 to 100 | 15 to 100 | 5 to 15 | > 100 | 5 to 15 | 0.1 to 5 | 5 to 15 | 100 | 15 to 100 | 15 to 100 | 15 to 100 | 15 to 100 | 5 to 15 | 0.1 to 5 | 5 to 15 | 106 | 5 to 15 | 104 | 5 to 15 | 15 to 100 | Emax (HepG2 [4]; read-out: MI %): 99%; Emax (KG-1 [5]; read-out: MI %): 102%; Emax (HS445; read-out: MI %): 102%; Emax (MOLT-4 [6]; read-out: MI %): 92%; Emax (RL; read-out: MI %): 100%; Emax (RPMI-8226; read-out: MI %): 103%; IC50 (SW620): 15 to 100 µM; Emax (SW620; read-out: MI %): 100%; IC50 (THP-1): 15 to 100 µM; Emax (THP-1; read-out: MI %): 99%; IC50 (Z138): 5 to 15 µM; Emax (Z138): 100%
